Assay results published in patent US20020187938A1, “Ghrelin antagonists” (priority 2000, published 2002).
In brackets after ≈: the same amount, converted by molar mass. Several values for one entry are separate records, joined by “and”; a condition that tells them apart may be missing. Equal values may be shown once. Where a SMILES comes first, the peptide text is derived from it. Where no end group is shown, it is not given here. The star is where a group is joined. Octanoyl = CCCCCCCC(=O)*

Key:
circulating GH = experiment: Circulating GH in 10-day old rats after subcutaneous injection; type: in vivo; details: 300 mg/kg, circulating GH at 15 minutes
Procedure: The peptide was injected subcutaneously in 10-day old rats at a dose of 300 mg/kg along with a solvent control and Ghrelin, and the circulating GH determined at 15 minutes, as described in R. Deghenghi et al., Life Sciences 54, 1321-1328 (1994). The results were as follows: The peptide was administered to rats as described above in Example 1. […]

Solubility in water = type: physicochemical; details: for solubility: water
Procedure: Solubility in water: 0.7 mg/ml

Solubility in water (Solubility in water) | Molecule | GH (circulating GH) | solubility (Solubility in water)
 | Ghrelin (human): peptide of 27 or 28 amino acids with an octanoyl ester on a serine residue; potent releaser of growth hormone (GSS(Octanoyl)FLSPEHQRVQQRKESKKPPAKLQPR; also: octanoyl ester on a serine residue; UniProt Q9UBU3 24-51, looked up) | 139.80 ± 15.37 ng/mL and 140 ± 15 ng/mL and 139.8 ± 15.4 ng/mL | 
 | CCCCCCCC(=O)OC[C@H](NC(=O)[C@H](CO)NC(=O)CN)C(=O)N[C@@H](Cc1ccccc1)C(=O)N[C@@H](CC(C)C)C(=O)N[C@@H](CO)C(=O)N1CCC[C@H]1C(=O)N[C@@H](CCC(=O)O)C(=O)O [Peptide of Example 1, Gly-Ser-Ser(Octanoyl)-Phe-Leu-Ser-Pro-Glu] |  | 700 µg/mL (≈ 738 µM)
insoluble | CCCCCCCC(=O)OC[C@H](NC(=O)[C@H](CO)NC(=O)CN)C(=O)N[C@@H](Cc1ccccc1)C(=O)O [Peptide of Example 3, Gly-Ser-Ser(Octanoyl)-Phe] (H-GSS(Octanoyl)F-OH; N-terminus and C-terminus assumed) |  | 
 | CCCCCCCC(=O)OC[C@H](NC(=O)[C@H](CO)NC(=O)CN)C(=O)N[C@@H](Cc1ccccc1)C(=O)N[C@@H](CC(C)C)C(=O)N[C@@H](CO)C(=O)N1CCC[C@H]1C(=O)N[C@@H](CCC(=O)O)C(=O)N[C@@H](C)C(=O)N[C@@H](CCCCN)C(=O)N[C@@H](CC(C)C)C(=O)N[C@@H](CCC(N)=O)C(=O)N1CCC[C@H]1C(=O)N[C@@H](CCCNC(=N)N)C(=O)O [Peptide of Example 2, Gly-Ser-Ser(Octanoyl)-Phe-Leu-Ser-Pro-Glu-Ala-Lys-Leu-Gln-Pro-Arg] (H-GSS(Octanoyl)FLSPEAKLQPR-OH) | 7.00 ± 3.5 ng/mL | 900 µg/mL (≈ 548 µM)
